The values below come from US9382216B2, “Substituted morpholines as modulators for the calcium sensing receptor” (LUPIN LIMITED, priority 2011, dated 2016).

As usually defined, the EC50 is the midpoint of the concentration-response curve.

Structures are written as SMILES. Counter-ions that a name gives are not always drawn.

This assay has as its target T1, hCaSR (Calcium sensing receptor) in stably transfected HEK293 cells (Homo sapiens, UniProt P41180).
T1 construct: expressed in transfected cells; host or cells: HEK293 (stably transfected)
T1 sequence (P41180 20-1078): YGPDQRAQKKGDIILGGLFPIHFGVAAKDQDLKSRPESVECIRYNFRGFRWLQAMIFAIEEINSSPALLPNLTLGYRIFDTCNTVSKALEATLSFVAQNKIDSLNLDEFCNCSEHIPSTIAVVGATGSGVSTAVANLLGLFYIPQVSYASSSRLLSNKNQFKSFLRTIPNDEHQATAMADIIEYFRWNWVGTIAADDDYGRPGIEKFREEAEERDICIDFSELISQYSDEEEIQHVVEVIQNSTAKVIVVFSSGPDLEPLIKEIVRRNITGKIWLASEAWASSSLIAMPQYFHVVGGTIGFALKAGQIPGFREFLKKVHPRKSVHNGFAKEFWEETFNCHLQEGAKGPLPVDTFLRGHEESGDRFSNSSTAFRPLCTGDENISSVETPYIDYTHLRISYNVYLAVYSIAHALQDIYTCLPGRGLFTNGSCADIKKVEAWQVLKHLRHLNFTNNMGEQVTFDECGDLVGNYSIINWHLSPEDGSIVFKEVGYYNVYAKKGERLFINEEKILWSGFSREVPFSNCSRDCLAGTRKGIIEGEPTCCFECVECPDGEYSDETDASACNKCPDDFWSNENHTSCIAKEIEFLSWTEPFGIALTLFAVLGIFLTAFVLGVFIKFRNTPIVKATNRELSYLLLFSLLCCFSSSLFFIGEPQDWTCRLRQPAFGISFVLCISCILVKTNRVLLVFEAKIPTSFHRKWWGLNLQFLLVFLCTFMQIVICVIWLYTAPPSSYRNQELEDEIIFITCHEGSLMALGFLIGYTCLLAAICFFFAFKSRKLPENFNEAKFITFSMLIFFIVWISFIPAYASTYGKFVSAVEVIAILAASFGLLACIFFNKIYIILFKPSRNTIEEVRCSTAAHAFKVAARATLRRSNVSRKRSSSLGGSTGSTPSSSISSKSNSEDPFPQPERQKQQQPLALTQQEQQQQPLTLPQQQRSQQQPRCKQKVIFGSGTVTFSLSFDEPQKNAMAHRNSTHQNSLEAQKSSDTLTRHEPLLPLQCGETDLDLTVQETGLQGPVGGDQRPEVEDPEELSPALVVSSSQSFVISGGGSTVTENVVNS
The experiment in a line: In-vitro assay of calcimimetics through modulation of calcium sensing receptor (CaSR): increase in intracellular calcium, FLIPR. The conditions noted are these: HEK293 cells expressing hCaSR; intracellular calcium (Fluo4NW, FLIPR); 0.3 mM CaCl2; 8-point assay; read-out: EC50 in range. Format: cell-based. The protocol:
In-Vitro Assay Method of Calcimemtics Through Modulation of Calcium Sensing Receptor (CaSR):
The ability of the compounds to modulate Calcium sensing receptor is determined by measuring an increase in intracellular calcium [Ca^2+i]. Stably transfected HEK293 cells expressing hCaSR_pTriEx-3 hygro vector are developed. Cells are grown overnight on a 96-well plate to 80% confluency in Ham's F12 containing 20% FBS at 37° C., 5% CO2 Subsequently, cells are washed extensively with 20 mM HEPES buffer containing 126 mM NaCl2, 1 mM MgCl2 and 4 mM KCl2 to remove serum components that might interfere with the assay. Cells are loaded with calcium sensing Fluo4NW dye in HEPES base buffer containing 0.1% BSA and 1 mg/ml glucose for 30 minutes to measure changes in intracellular calcium. The activities of the compounds are measured in FLIPR using 0.3 mM CaCl2 in 20 mM HEPES base buffer. The effectiveness of the compound to modulate receptor activity is determined by calculating the EC50 responses for that compound in an 8-point assay and plotted using GraphPad Prism 5.
The compounds prepared were tested using the above assay procedure and the results obtained are given below.
Consider `COc1cccc([C@@H](C)NCC2COCCN2c2cccc(C(F)(F)F)c2)c1` (single isomer, unassigned) [4a], for which the concentration for a half-maximal effect (EC50) lay in the range of 20 to 50 nM.
Regarding `COc1cccc(N2CCOCC2CN[C@H](C)c2cccc3ccccc23)c1` (single isomer, unassigned) [5a], the EC50 is 50 to 200 nM.
On to `COc1cccc(N2CCOCC2CN[C@H](C)c2cccc3ccccc23)c1` (single isomer, unassigned) [5b], for which the 50% effective concentration (EC50) is under 20 nM.
To `COc1cccc([C@@H](C)NCC2COCCN2c2cccc(OC)c2)c1` (single isomer, unassigned) [6a] belongs 20 to 50 nM; to `Cc1ccc(N2CCOCC2CN[C@H](C)c2cccc3ccccc23)cc1` (single isomer, unassigned) [7b], 20 to 50 nM.
For the compound `COc1cccc([C@@H](C)NCC2COCCN2c2cccc(C)c2)c1` (single isomer, unassigned) [10a], the EC50 lay in the range of 50 to 200 nM.
As for `COc1cccc([C@@H](C)NCC2COCCN2c2cccc(C)c2)c1` (single isomer, unassigned) [10b], the EC50 was under 20 nM.
On to `COc1cccc([C@@H](C)NCC2COCCN2c2ccccc2)c1` (single isomer, unassigned) [11a], for which the EC50 was under 20 nM.
On to `COc1cccc(N2CCOC(CN[C@H](C)c3cccc4ccccc34)C2)c1` (single isomer, unassigned) [25a], for which the 50% effective concentration (EC50) was under 20 nM.
`COc1cccc(N2CCOC(CN[C@H](C)c3cccc4ccccc34)C2)c1` (single isomer, unassigned) [25b]: the half-maximal effective concentration (EC50) is 20 to 50 nM.
Take `C[C@@H](NCC1CN(c2ccccc2)CCO1)c1cccc2ccccc12` (single isomer, unassigned) [26a]: the EC50 was under 20 nM.
To `Cc1ccc(N2CCOC(CN[C@H](C)c3cccc4ccccc34)C2)cc1` (single isomer, unassigned) [27a] belongs 50 to 200 nM; to `Cc1ccc(N2CCOC(CN[C@H](C)c3cccc4ccccc34)C2)cc1` (single isomer, unassigned) [27b], under 20 nM; to `C[C@@H](NCC1CN(c2ccc(C(F)(F)F)cc2)CCO1)c1cccc2ccccc12` (single isomer, unassigned) [33a], under 20 nM.
Consider `C[C@@H](NCC1CN(c2ccc(C(F)(F)F)cc2)CCO1)c1cccc2ccccc12` (single isomer, unassigned) [33b], for which the 50% effective concentration (EC50) lay within 20 to 50 nM.
Turning to `C[C@@H](NCC1CN(c2ccc(F)c(F)c2)C(=O)CO1)c1cccc2ccccc12` (single isomer, unassigned) [62a, hydrochloride], the EC50 was under 20 nM.
As for `C[C@@H](NCC1CN(c2ccc(F)c(F)c2)C(=O)CO1)c1cccc2ccccc12` (single isomer, unassigned) [62b, hydrochloride], the EC50 fell in the range of 20 to 50 nM.
On to `C[C@@H](NCC1CN(Cc2cccc(C(F)(F)F)c2)C(=O)CO1)c1cccc2ccccc12` (single isomer, unassigned) [Example 70a, hydrochloride], for which the EC50 was under 20 nM.
Turning to `C[C@@H](NCC1CN(Cc2cc(F)ccc2F)C(=O)CO1)c1cccc2ccccc12` (single isomer, unassigned) [Example 72a, hydrochloride], the EC50 was under 20 nM.
For the compound `CC(C)N1CC(CN[C@H](C)c2cccc3ccccc23)OCC1=O` (single isomer, unassigned) [Example 93b, hydrochloride], the EC50 fell in the range of 50 to 200 nM.
For the compound `C[C@@H](NCC1CN(CC2CC2)C(=O)CO1)c1cccc2ccccc12` (single isomer, unassigned) [Example 97a, hydrochloride], the concentration for a half-maximal effect (EC50) was under 20 nM.
Take `C[C@@H](NCC1CN(CCc2ccc(F)cc2)C(=O)CO1)c1cccc2ccccc12` (single isomer, unassigned) [Example 98a, hydrochloride]: the EC50 was under 20 nM.
The figure for `COc1cc([C@@H](C)NCC2CN(Cc3ccc(F)cc3)C(=O)CO2)ccc1F` (single isomer, unassigned) [Example 101a, hydrochloride] is 20 to 50 nM; for `Cc1cc(N2CCOC(CCN[C@H](C)c3cccc4ccccc34)C2)ccc1C(=O)O` (single isomer, unassigned) [Example 104a] it is 50 to 200 nM.
`Cc1ccc(N2CCOC(CCN[C@H](C)c3cccc4ccccc34)C2)cc1CCC(=O)O` (single isomer, unassigned) [Example 108a, hydrochloride]: the concentration for a half-maximal effect (EC50) was 20 to 50 nM.
As for `C[C@@H](NCCC1CN(c2ccc(C(F)(F)F)c(C(=O)O)c2)CCO1)c1cccc2ccccc12` (single isomer, unassigned) [Example 110a, hydrochloride], the 50% effective concentration (EC50) lay within 50 to 200 nM.
In the case of `C[C@@H](NCCC1CN(c2ccc(C(=O)O)cc2)CCO1)c1cccc2ccccc12` (single isomer, unassigned) [Example 112a, hydrochloride], the EC50 was 50 to 200 nM.
To `C[C@@H](NCCC1CN(c2cccc(OCC(=O)O)c2)CCO1)c1cccc2ccccc12` (single isomer, unassigned) [Example 113a, hydrochloride] belongs 50 to 200 nM.
On to `Cc1cc(N2CCOC(CN[C@H](C)c3cccc4ccccc34)C2)ccc1C(=O)O` (single isomer, unassigned) [Example 136b, hydrochloride], for which the EC50 was in the range of 50 to 200 nM.
Regarding `C[C@@H](NCC1CN(c2cc(C(=O)O)cc(C(F)(F)F)c2)CCO1)c1cccc2ccccc12` (single isomer, unassigned) [Example 150a, hydrochloride], the EC50 was under 20 nM.
Take `COc1cc([C@@H](C)NCC2CN(c3ccc(F)c(F)c3)C(=O)CO2)ccc1F` (single isomer, unassigned) [Example 152b, hydrochloride]: the EC50 was 50 to 200 nM.
With `COc1cc([C@@H](C)NCC2CN(Cc3cc(F)ccc3F)C(=O)CO2)ccc1F` (single isomer, unassigned) [Example 160a, hydrochloride], the EC50 is 20 to 50 nM.
`C[C@@H](NCC1COCCN1c1ccccc1)c1cccc2ccccc12` (single isomer, unassigned) [Example-1a, hydrochloride]: the EC50 is under 20 nM.
As to `C[C@@H](NCC1COCCN1c1cccc(C(F)(F)F)c1)c1cccc2ccccc12` (single isomer, unassigned) [Example-2a], the EC50 was under 20 nM.
For `C[C@@H](NCC1COCCN1Cc1cccc(C(F)(F)F)c1)c1cccc2ccccc12` (single isomer, unassigned) [Example-35b], the EC50 was in the range of 20 to 50 nM.
As for `C[C@@H](NCC1COCCN1Cc1ccccc1)c1cccc2ccccc12` (single isomer, unassigned) [Example-36a], the EC50 fell in the range of 50 to 200 nM.
Regarding `COc1cccc([C@@H](C)NCC2COCCN2Cc2ccccc2)c1` (single isomer, unassigned) [Example-37b], the concentration giving a half-maximal response (EC50) lay within 50 to 200 nM.
On to `C[C@@H](NCC1CN(CC2CCCC2)C(=O)CO1)c1cccc2ccccc12` (single isomer, unassigned) [Example-69a], for which the EC50 is 50 to 200 nM.
As for `C[C@@H](NCC1CN(C2CCCC2)C(=O)CO1)c1cccc2ccccc12` (stereo partly drawn) [Example 76, 4-Cyclopentyl-6-((((R)-1-(naphthalen-1-yl)ethyl)amino)methyl)morpholin-3-one hydrochloride], the EC50 is under 20 nM.
`C[C@@H](NCC1CN(Cc2cccc(F)c2F)C(=O)CO1)c1cccc2ccccc12` (stereo partly drawn) [Example 81, 4-(2,3-Difluorobenzyl)-6-((((R)-1-(naphthalen-1-yl)ethyl)amino)methyl)morpholin-3-one hydrochloride]: the EC50 is under 20 nM.
